Laboratory results taken from PubChem BioAssay AID248 (DTP/NCI, 2004).
Where “and” joins values, the source holds several entries; their conditions need not be identical. Equal values may be shown once. Inconclusive results and toxic doses are left out.

Tested on: L1210 leukemia ip in BDF1 mice, survival T/C
Assay: NCI In Vivo Anticancer Drug Screen. Data for tumor model L1210 Leukemia (intraperitoneal) in B6D2F1 (BDF1) mice
Conditions: higher = longer survival
Summary of the method: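 Tumor cells were implanted, animals were treated, and survival was followed. The result divides the treated measurement by the vehicle-control measurement.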

[1] = endpoint: mean survival time, dose: 50.0 mg/kg/injection, schedule: Q01DX001 (ip), vehicle: saline
[2] = endpoint: mean survival time, dose: 50.0 mg/kg/injection, schedule: Q01DX009 (ip), vehicle: saline
[3] = endpoint: mean survival time, dose: 100.0 mg/kg/injection, schedule: Q01DX009 (ip), vehicle: saline
[4] = endpoint: mean survival time, dose: 200.0 mg/kg/injection, schedule: Q01DX001 (ip), vehicle: saline
[5] = endpoint: mean survival time, dose: 200.0 mg/kg/injection, schedule: Q01DX009 (ip), vehicle: saline
[6] = endpoint: mean survival time, dose: 400.0 mg/kg/injection, schedule: Q01DX001 (ip), vehicle: saline
[7] = endpoint: mean survival time, dose: 100.0 mg/kg/injection, schedule: Q01DX009 (ip), vehicle: Klucel (hydroxypropylcellulose) (HPC)
[8] = endpoint: mean survival time, dose: 200.0 mg/kg/injection, schedule: Q01DX009 (ip), vehicle: Klucel (hydroxypropylcellulose) (HPC)
[9] = endpoint: mean survival time, dose: 400.0 mg/kg/injection, schedule: Q01DX009 (ip), vehicle: Klucel (hydroxypropylcellulose) (HPC)
[10] = endpoint: mean survival time, dose: 100.0 mg/kg/injection, schedule: Q04DX002 (ip), vehicle: Klucel (hydroxypropylcellulose) (HPC)
[11] = endpoint: mean survival time, dose: 200.0 mg/kg/injection, schedule: Q04DX002 (ip), vehicle: Klucel (hydroxypropylcellulose) (HPC)
[12] = endpoint: mean survival time, dose: 400.0 mg/kg/injection, schedule: Q04DX002 (ip), vehicle: Klucel (hydroxypropylcellulose) (HPC)
[13] = endpoint: mean survival time, dose: 100.0 mg/kg/injection, schedule: Q01DX001 (ip), vehicle: saline
[14] = endpoint: mean survival time, dose: 100.0 mg/kg/injection, schedule: Q04DX003 (ip), vehicle: Klucel (hydroxypropylcellulose) (HPC)
[15] = endpoint: mean survival time, dose: 400.0 mg/kg/injection, schedule: Q04DX003 (ip), vehicle: Klucel (hydroxypropylcellulose) (HPC)
[16] = endpoint: mean survival time, dose: 100.0 mg/kg/injection, schedule: Q01DX001 (ip), vehicle: Klucel (hydroxypropylcellulose) (HPC)
[17] = endpoint: mean survival time, dose: 200.0 mg/kg/injection, schedule: Q01DX001 (ip), vehicle: Klucel (hydroxypropylcellulose) (HPC)
[18] = endpoint: mean survival time, dose: 200.0 mg/kg/injection, schedule: Q04DX003 (ip), vehicle: Klucel (hydroxypropylcellulose) (HPC)

SMILES: O=P1(NCCCl)OCCCN1CCCl (centres undefined)
- T/C (endpoint: mean survival time, dose: 12.5 mg/kg/injection, schedule: Q01DX001 (ip), vehicle: saline): 101 % of control
- T/C (endpoint: mean survival time, dose: 25.0 mg/kg/injection, schedule: Q01DX001 (ip), vehicle: saline): 116 % of control and 117 % of control
- T/C (endpoint: mean survival time, dose: 25.0 mg/kg/injection, schedule: Q01DX009 (ip), vehicle: saline): 155 % of control
- T/C (endpoint: mean survival time, dose: 25.0 mg/kg/injection, schedule: Q07DX003 (ip), vehicle: saline): 110 % of control
- T/C [1]: 124 % of control
- T/C [2]: 160 % of control
- T/C (endpoint: mean survival time, dose: 50.0 mg/kg/injection, schedule: Q01DX009 (ip), vehicle: water): 173 % of control
- T/C (endpoint: mean survival time, dose: 75.0 mg/kg/injection, schedule: Q07DX003 (ip), vehicle: saline): 166 % of control
- T/C [3]: 260 % of control
- T/C (endpoint: mean survival time, dose: 100.0 mg/kg/injection, schedule: Q01DX009 (ip), vehicle: water): 185 % of control
- T/C (endpoint: mean survival time, dose: 100.0 mg/kg/injection, schedule: Q07DX003 (ip), vehicle: saline): 216 % of control
- T/C (endpoint: mean survival time, dose: 125.0 mg/kg/injection, schedule: Q07DX003 (ip), vehicle: saline): 206 % of control
- T/C (endpoint: mean survival time, dose: 150.0 mg/kg/injection, schedule: Q01DX001 (ip), vehicle: saline): 249 % of control
- T/C [4]: 191 % of control and 221 % of control and 298 % of control
- T/C [5]: 167 % of control
- T/C [6]: 198 % of control
- T/C (endpoint: mean survival time, dose: 800.0 mg/kg/injection, schedule: Q01DX001 (ip), vehicle: saline): 206 % of control
- T/C (endpoint: median survival time, dose: 65.0 mg/kg/injection, schedule: Q01DX014 (ip), vehicle: water): 215 % of control and 216 % of control
- T/C (endpoint: median survival time, dose: 108.0 mg/kg/injection, schedule: Q01DX001 (ip), vehicle: water): 118 % of control and 121 % of control
- T/C (endpoint: median survival time, dose: 180.0 mg/kg/injection, schedule: Q01DX001 (ip), vehicle: saline): 172 % of control and 175 % of control
- T/C (endpoint: median survival time, dose: 180.0 mg/kg/injection, schedule: Q01DX009 (ip), vehicle: water): 291 % of control
- T/C (endpoint: median survival time, dose: 180.0 mg/kg/injection, schedule: Q01DX014 (ip), vehicle: water): 105 % of control
- T/C (endpoint: median survival time, dose: 180.0 mg/kg/injection, schedule: Q07DX003 (ip), vehicle: water): 289 % of control
- T/C (endpoint: median survival time, dose: 300.0 mg/kg/injection, schedule: Q01DX001 (ip), vehicle: saline): 261 % of control and 266 % of control
- T/C (endpoint: median survival time, dose: 300.0 mg/kg/injection, schedule: Q01DX009 (ip), vehicle: water): 187 % of control
- T/C (endpoint: median survival time, dose: 300.0 mg/kg/injection, schedule: Q01DX014 (ip), vehicle: water): 76 % of control
- T/C (endpoint: median survival time, dose: 300.0 mg/kg/injection, schedule: Q07DX003 (ip), vehicle: water): 168 % of control
- T/C (endpoint: median survival time, dose: 400.0 mg/kg/injection, schedule: Q01DX001 (ip), vehicle: water): 272 % of control and 297 % of control
- T/C (endpoint: median survival time, dose: 500.0 mg/kg/injection, schedule: Q01DX001 (ip), vehicle: saline): 44 % of control
- T/C (endpoint: median survival time, dose: 500.0 mg/kg/injection, schedule: Q01DX009 (ip), vehicle: water): 81 % of control
- T/C (endpoint: median survival time, dose: 600.0 mg/kg/injection, schedule: Q01DX001 (ip), vehicle: water): 227 % of control and 255 % of control
- T/C (endpoint: median survival time, dose: 700.0 mg/kg/injection, schedule: Q01DX001 (ip), vehicle: water): 46 % of control
- T/C (endpoint: median survival time, dose: 800.0 mg/kg/injection, schedule: Q01DX001 (ip), vehicle: water): 39 % of control
- T/C (endpoint: median survival time, dose: 833.0 mg/kg/injection, schedule: Q01DX001 (ip), vehicle: saline): 23 % of control
- T/C (endpoint: median survival time, dose: 833.0 mg/kg/injection, schedule: Q01DX009 (ip), vehicle: water): 24 % of control
- T/C (endpoint: median survival time, dose: 900.0 mg/kg/injection, schedule: Q01DX001 (ip), vehicle: water): 25 % of control

SMILES: CNC(=O)Nc1cc(Cl)c(OC)cc1OC
- T/C [7]: 96 % of control
- T/C [8]: 95 % of control
- T/C [9]: 96 % of control

SMILES: CCN(CC)c1ccc(S(=O)(=O)NC(=O)OC)cc1
- T/C [10]: 98 % of control
- T/C [11]: 112 % of control
- T/C [12]: 112 % of control

SMILES: CN(C)CC(O)c1ccc2oc3ccccc3c2c1 (centres undefined)
- T/C [13]: 90 % of control
- T/C [4]: 97 % of control

SMILES: CCOC(=O)C(C1=NC(C)(C)CC(C)O1)C1CCCCC1 (centres undefined)
- T/C (endpoint: mean survival time, dose: 100.0 mg/kg/injection, schedule: Q04DX003 (ip), vehicle: saline sonified): 115 % of control
- T/C (endpoint: mean survival time, dose: 200.0 mg/kg/injection, schedule: Q04DX003 (ip), vehicle: saline sonified): 102 % of control
- T/C (endpoint: mean survival time, dose: 400.0 mg/kg/injection, schedule: Q04DX003 (ip), vehicle: saline sonified): 108 % of control

SMILES: Cc1cc2ccccc2nc1-c1ccccc1F
- T/C [13]: 97 % of control
- T/C [4]: 94 % of control
- T/C [6]: 88 % of control

SMILES: O=C(COc1ccc(Cl)cc1)Nc1ccc(F)cc1
- T/C [7]: 98 % of control
- T/C [14]: 95 % of control
- T/C [8]: 90 % of control
- T/C [15]: 95 % of control

SMILES: Cc1cc(C(c2ccccc2)c2ccccc2)cc(C)c1O
- T/C [16]: 98 % of control
- T/C [17]: 93 % of control
- T/C (endpoint: mean survival time, dose: 400.0 mg/kg/injection, schedule: Q01DX001 (ip), vehicle: Klucel (hydroxypropylcellulose) (HPC)): 92 % of control

SMILES: CC1=CC(=C(C#N)C#N)CC(C)(C)C1
- T/C [10]: 101 % of control
- T/C [11]: 101 % of control
- T/C [12]: 93 % of control

SMILES: COC(C(OC(C)=O)C(OC(C)=O)C(OC(C)=O)C(COC(C)=O)OC(C)=O)n1cc(C)c(=O)[nH]c1=O (centres undefined)
- T/C [1]: 103 % of control
- T/C [13]: 97 % of control
- T/C [4]: 95 % of control
- T/C [6]: 91 % of control

SMILES: COc1ccc(OC)c(/C=C/c2ccc3ccccc3[n+]2C)c1
- T/C (endpoint: mean survival time, dose: 5.0 mg/kg/injection, schedule: Q04DX003 (ip), vehicle: saline with Tween-80): 110 % of control
- T/C (endpoint: mean survival time, dose: 10.0 mg/kg/injection, schedule: Q04DX003 (ip), vehicle: saline with Tween-80): 111 % of control
- T/C (endpoint: mean survival time, dose: 20.0 mg/kg/injection, schedule: Q04DX003 (ip), vehicle: saline with Tween-80): 117 % of control

SMILES: O=C(O)C(O)C(F)(F)F (centres undefined)
- T/C (endpoint: mean survival time, dose: 31.0 mg/kg/injection, schedule: Q01DX Z (ip), vehicle: methylcellulose (MC)): 102 % of control
- T/C (endpoint: mean survival time, dose: 62.5 mg/kg/injection, schedule: Q01DX Z (ip), vehicle: methylcellulose (MC)): 96 % of control
- T/C (endpoint: mean survival time, dose: 125.0 mg/kg/injection, schedule: Q01DX Z (ip), vehicle: methylcellulose (MC)): 100 % of control
- T/C (endpoint: mean survival time, dose: 250.0 mg/kg/injection, schedule: Q01DX Z (ip), vehicle: methylcellulose (MC)): 97 % of control

SMILES: O=C1C=C(c2ccccc2)C2(c3ccccc3)OC2O1 (centres undefined)
- T/C [7]: 109 % of control
- T/C [14]: 98 % of control
- T/C [8]: 100 % of control
- T/C [18]: 98 % of control
- T/C [9]: 98 % of control
- T/C [15]: 98 % of control

SMILES: Nc1cc[n+](-c2ccc([N+](=O)[O-])cc2[N+](=O)[O-])cc1
- T/C (endpoint: mean survival time, dose: 12.5 mg/kg/injection, schedule: Q01DX009 (ip), vehicle: Klucel (hydroxypropylcellulose) (HPC)): 98 % of control
- T/C (endpoint: mean survival time, dose: 25.0 mg/kg/injection, schedule: Q01DX009 (ip), vehicle: Klucel (hydroxypropylcellulose) (HPC)): 100 % of control

SMILES: C=CCC/C(=C/C(=O)OCC)OCC=C
- T/C (endpoint: mean survival time, dose: 50.0 mg/kg/injection, schedule: Q01DX009 (ip), vehicle: saline with Tween-80): 107 % of control
- T/C (endpoint: mean survival time, dose: 100.0 mg/kg/injection, schedule: Q01DX009 (ip), vehicle: saline with Tween-80): 114 % of control

SMILES: NC(=O)c1cc(Cl)ccn1
- T/C (endpoint: mean survival time, dose: 100.0 mg/kg/injection, schedule: Q04DX002 (ip), vehicle: saline with Tween-80): 101 % of control
- T/C (endpoint: mean survival time, dose: 200.0 mg/kg/injection, schedule: Q04DX002 (ip), vehicle: saline with Tween-80): 99 % of control

SMILES: CCOC(=O)c1cc(N)c[nH]1
- T/C [2]: 109 % of control
- T/C [3]: 96 % of control
- T/C (endpoint: mean survival time, dose: 100.0 mg/kg/injection, schedule: Q04DX003 (ip), vehicle: saline): 89 % of control
- T/C [5]: 96 % of control
- T/C (endpoint: mean survival time, dose: 200.0 mg/kg/injection, schedule: Q04DX003 (ip), vehicle: saline): 94 % of control

SMILES: O=[N+]([O-])c1ccc(C2=NC(c3ccccc3)CO2)cc1 (centres undefined)
- T/C (endpoint: mean survival time, dose: 50.0 mg/kg/injection, schedule: Q01DX001 (ip), vehicle: Klucel (hydroxypropylcellulose) (HPC)): 96 % of control
- T/C [16]: 112 % of control
- T/C [17]: 94 % of control

SMILES: CC(C)OC(CCC#N)c1ccccc1 (centres undefined)
- T/C [7]: 101 % of control
- T/C [14]: 102 % of control
- T/C [8]: 98 % of control
- T/C [18]: 96 % of control
- T/C [15]: 102 % of control

SMILES: Cc1cc2nc(-c3cc4cc(Cl)cc(Cl)c4oc3=O)[nH]c2cc1C
- T/C [10]: 108 % of control
- T/C [11]: 104 % of control
- T/C [12]: 115 % of control
